One may read the T/C as the ratio of treated to control.

≈ marks a conversion by molar mass, not a printed value.

The species entered for one series is Mus musculus. In words: Ratio of number of mice that survived after 50 days among eight mice tested. Type of series: functional.
Series [1] can be described thus: Antitumor activity against S-180 cells after i.p. administration in mice up to 7 days at a dose of 16 umol/kg. Type of series: functional, Mus musculus.
The nature of series [2]: Cytotoxicity against L-1210 cells. Type of series: cell-based, L1210. The settings on record: mouse, read-out: ED50 (the source's name).

Turning to `CCC(OC(=O)C(Cc1ccc(N(CCCl)CCCl)cc1)NC=O)c1cc(O)c2c(c1O)C(=O)c1ccccc1C2=O` (stereo not drawn), in the series listed under Mus musculus, the Survival ratio was 3. The molecule also returned a T/C in series [1] of 245%. In addition, the CC50 in series [2] is 0.2 µg/mL (≈ 0.326 µM).
In the case of `CCCCC(OC(=O)C(Cc1ccc(N(CCCl)CCCl)cc1)NC=O)c1cc(O)c2c(c1O)C(=O)c1ccccc1C2=O` (stereo not drawn), the Survival ratio in the series filed under Mus musculus is on record as 2. In addition, in series [1], the T/C was found to be 230%. Also, the CC50 in series [2] was 0.4 µg/mL (≈ 0.623 µM).
As to `CCCCCC(O)c1cc(O)c2c(c1O)C(=O)c1ccccc1C2=O` (stereo not drawn), the T/C in series [1] was determined as 108%. In addition, in series [2], the CC50 came out at 58 µg/mL (≈ 170 µM).
In the same order, the values of `CCCC(O)c1cc(O)c2c(c1O)C(=O)c1ccccc1C2=O` (stereo not drawn) are 125% and 10.2 µg/mL (≈ 32.7 µM).
In the same order, the values of `CCCCC(O)c1cc(O)c2c(c1O)C(=O)c1ccccc1C2=O` (stereo not drawn) are 110% and 23.7 µg/mL (≈ 72.6 µM).
With `CCC(O)c1cc(O)c2c(c1O)C(=O)c1ccccc1C2=O` (stereo not drawn), the T/C in series [1] is reported as 135%. Moreover, the CC50 in series [2] was determined as 7.2 µg/mL (≈ 24.1 µM).
Take `O=CNC(Cc1ccc(N(CCCl)CCCl)cc1)C(=O)OCc1cc(O)c2c(c1O)C(=O)c1ccccc1C2=O` (stereo not drawn): the Survival ratio in the series filed under Mus musculus was determined as 3. The T/C in series [1] stood at 265%. For the same molecule, in series [2], the CC50 came out at 0.086 µg/mL (≈ 0.147 µM).
As for `O=C1c2ccccc2C(=O)c2c(O)c(CO)cc(O)c21`, the T/C in series [1] was found to be 125%. Moreover, the CC50 in series [2] stood at 15 µg/mL (≈ 55.5 µM).
In series [1], `CC(O)c1cc(O)c2c(c1O)C(=O)c1ccccc1C2=O` (stereo not drawn) returned a T/C of 139%. In addition, the CC50 in series [2] worked out at 1.9 µg/mL (≈ 6.68 µM).
Consider `CCCCCC(OC(=O)C(Cc1ccc(N(CCCl)CCCl)cc1)NC=O)c1cc(O)c2c(c1O)C(=O)c1ccccc1C2=O` (stereo not drawn), for which the Survival ratio in the series listed under Mus musculus was 1. In addition, the T/C in series [1] stood at 230%. Further, the CC50 in series [2] worked out at 3.1 µg/mL (≈ 4.73 µM).
In the case of `CCCCCCC(O)c1cc(O)c2c(c1O)C(=O)c1ccccc1C2=O` (stereo not drawn), the T/C in series [1] stood at 115%. Also, the CC50 in series [2] stood at 60 µg/mL (≈ 169 µM).
In series [1], `CCCCCCCC(O)c1cc(O)c2c(c1O)C(=O)c1ccccc1C2=O` (stereo not drawn) showed a T/C of 103%. In addition, the CC50 in series [2] stood at 80 µg/mL (≈ 217 µM).
Turning to `CC(OC(=O)C(Cc1ccc(N(CCCl)CCCl)cc1)NC=O)c1cc(O)c2c(c1O)C(=O)c1ccccc1C2=O` (stereo not drawn), the Survival ratio in the series filed under Mus musculus turned out to be 6. In series [1], this molecule gave a T/C of 272%. For the same molecule, in series [2], the CC50 came out at 0.12 µg/mL (≈ 0.2 µM).
As to `CCCC(OC(=O)C(Cc1ccc(N(CCCl)CCCl)cc1)NC=O)c1cc(O)c2c(c1O)C(=O)c1ccccc1C2=O` (stereo not drawn), the Survival ratio in the series listed under Mus musculus was 3. This molecule had a T/C in series [1] of 240%. The CC50 in series [2] stood at 0.97 µg/mL (≈ 1.55 µM).
`CCCCCCC(OC(=O)C(Cc1ccc(N(CCCl)CCCl)cc1)NC=O)c1cc(O)c2c(c1O)C(=O)c1ccccc1C2=O` (stereo not drawn): the Survival ratio in the series filed under Mus musculus is listed as 0. The T/C in series [1] is given as 210%. Besides, the CC50 in series [2] is 4.5 µg/mL (≈ 6.72 µM).
Take `CCCCCCCC(OC(=O)C(Cc1ccc(N(CCCl)CCCl)cc1)NC=O)c1cc(O)c2c(c1O)C(=O)c1ccccc1C2=O` (stereo not drawn): the Survival ratio in the series listed under Mus musculus was found to be 0. Further, the T/C in series [1] is 205%. Besides, the CC50 in series [2] is 5.9 µg/mL (≈ 8.63 µM).
For the molecule `N[C@@H](Cc1ccc(N(CCCl)CCCl)cc1)C(=O)O` [MELPHALAN], the Survival ratio in the series filed under Mus musculus turned out to be 3. In series [1], this molecule showed a T/C of 225%. In series [2], the CC50 turned out to be 0.89 µg/mL (≈ 2.92 µM).
